Data: patent US20230416329A1, “A PEPTIDE WITH DISULFIDE BONDS AND INHIBITORY ACTIVITY AGAINST SERINE PROTEASES, DERIVED HYBRID PEPTIDES THEREOF, AND USES THEREOF” (INSTITUTE OF MATERIA MEDICA , CHINESE ACADEMY OF MEDICAL …, priority 2020, published 2023)
Bridge positions count the residues as written; N and C are the ends. Square brackets hold non-standard residues; d marks the D form. Peptide text beside a SMILES is read from it. Hyp = O=C(O)[C@@H]1C[C@@H](O)CN1

Target: α-chymotrypsin (Bos taurus, UniProt P00766)
Experiment: Chymotrypsin inhibitory activity of peptides (AAPFpNA hydrolysis; IC50, Ki, residual activity)
Assay type: biochemical
Conditions: for Ki: Ki=IC50/(1+S/Km), Km 0.38 mM; for IC50: chymotrypsin 30 nM, AAPFpNA 0.5 mM
How it was run: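 Peptide preincubated 10 min at 37 °C with 30 nM α-chymotrypsin in 50 mM Tris-HCl pH 7.8, 20 mM CaCl2; 0.5 mM AAPFpNA then added and A405 read after 90 min. Residual activity versus controls gave IC50; Ki = IC50/(1+S/Km), with Km measured separately.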

Ki	IC50	inhibitory activity against chymotrypsin (in words)	SMILES
0.78 µM	1.81 µM	–	CC[C@H](C)[C@@H]1NC(=O)[C@H](CO)NC(=O)[C@H](Cc2ccc(O)cc2)NC(=O)[C@H]([C@@H](C)O)NC(=O)[C@@H](NC(=O)[C@@H](N)Cc2ccccc2)CSSC[C@@H](C(=O)N[C@@H](Cc2ccc(O)cc2)C(=O)O)NC(=O)[C@H](CCC(N)=O)NC(=O)[C@H](C)NC(=O)[C@@H]2CCCN2C1=O [CH37] (H-FCTYSIPAQCY-OH; disulfide 2-10; N-terminus and C-terminus assumed)
1.06 µM	2.46 µM	–	CC[C@H](C)[C@H](N)C(=O)N[C@H]1CSSC[C@@H](C(=O)N[C@@H](Cc2ccccc2)C(=O)O)NC(=O)[C@H](CCC(N)=O)NC(=O)[C@H](C)NC(=O)[C@@H]2CCCN2C(=O)[C@H]([C@@H](C)CC)NC(=O)[C@H](CO)NC(=O)[C@H](Cc2ccccc2)NC(=O)[C@H]([C@@H](C)O)NC1=O [CH40] (H-ICTFSIPAQCF-OH; disulfide 2-10; N-terminus and C-terminus assumed)
1.12 µM	2.6 µM	–	CSCC[C@@H]1NC(=O)[C@H](CO)NC(=O)[C@H](Cc2ccc(O)cc2)NC(=O)[C@H]([C@@H](C)O)NC(=O)[C@@H](NC(=O)[C@@H](N)Cc2ccccc2)CSSC[C@@H](C(=O)N[C@H](C(=O)O)C(C)C)NC(=O)[C@H](Cc2c[nH]cn2)NC(=O)[C@@H]2CCCN2C(=O)[C@@H]2CCCN2C1=O [CH41] (H-FCTYSMPPHCV-OH; disulfide 2-10; N-terminus and C-terminus assumed)
3.97 µM	9.2 µM	–	C[C@@H]1NC(=O)[C@@H](NC(=O)[C@@H](N)Cc2ccccc2)CSSC[C@@H](C(=O)N[C@@H](CCC(N)=O)C(=O)O)NC(=O)[C@H](CCC(N)=O)NC(=O)[C@@H]2CCCN2C(=O)[C@@H]2CCCN2C(=O)[C@H](CC(N)=O)NC(=O)[C@H](CO)NC(=O)[C@H](Cc2ccc(O)cc2)NC1=O [CH43] (H-FCAYSNPPQCQ-OH; disulfide 2-10; N-terminus and C-terminus assumed)
8.29 µM	19.2 µM	–	C[C@@H]1NC(=O)[C@@H](NC(=O)[C@@H](N)Cc2ccccc2)CSSC[C@@H](C(=O)N[C@@H](CCC(N)=O)C(=O)O)NC(=O)[C@H](CCCCN)NC(=O)[C@@H]2CCCN2C(=O)[C@@H]2CCCN2C(=O)[C@H](Cc2ccc(O)cc2)NC(=O)[C@H](CO)NC(=O)[C@H](Cc2ccc(O)cc2)NC1=O [CH45] (H-FCAYSYPPKCQ-OH; disulfide 2-10; N-terminus and C-terminus assumed)
3.68 µM	8.52 µM	good chymotrypsin inhibitory activity	CC[C@H](C)[C@H](N)C(=O)N[C@H]1CSSC[C@@H](C(=O)N[C@H](C(=O)O)[C@@H](C)CC)NC(=O)[C@H](CCC(N)=O)NC(=O)[C@H](C)NC(=O)[C@@H]2CCCN2C(=O)[C@H]([C@@H](C)CC)NC(=O)[C@H](CO)NC(=O)[C@H](Cc2ccc(O)cc2)NC(=O)[C@H]([C@@H](C)O)NC1=O [CH47] (H-ICTYSIPAQCI-OH; disulfide 2-10; N-terminus and C-terminus assumed)
–	–	good chymotrypsin inhibitory activity	CC[C@H](C)[C@@H]1NC(=O)[C@H](CO)NC(=O)[C@H](Cc2ccc(O)cc2)NC(=O)[C@H]([C@@H](C)O)NC(=O)[C@@H](NC(=O)[C@@H]2CCCN2)CSSC[C@@H](C(=O)N[C@@H](Cc2ccc(O)cc2)C(=O)O)NC(=O)[C@H](CCC(N)=O)NC(=O)[C@@H]2CCCN2C(=O)[C@@H]2CCCN2C1=O [CH51] (H-PCTYSIPPQCY-OH; disulfide 2-10; N-terminus and C-terminus assumed)
0.36 µM	0.84 µM	–	CC[C@H](C)[C@@H]1NC(=O)[C@H](CO)NC(=O)[C@H](Cc2ccc(O)cc2)NC(=O)[C@H]([C@@H](C)O)NC(=O)[C@@H](NC(=O)[C@@H](N)Cc2ccccc2)CSSC[C@@H](C(=O)N[C@@H](Cc2ccc(O)cc2)C(=O)NCC(=O)O)NC(=O)[C@H](CCC(N)=O)NC(=O)[C@@H]2C[C@@H](O)CN2C(=O)[C@@H]2CCCN2C1=O [CH52] (H-FCTYSIP[Hyp]QCYG-OH; disulfide 2-10)
0.11 µM	0.25 µM	good chymotrypsin inhibitory activity	CC[C@H](C)[C@@H]1NC(=O)[C@H](CO)NC(=O)[C@H](Cc2ccc(O)cc2)NC(=O)[C@H]([C@@H](C)O)NC(=O)[C@@H](NC(=O)[C@@H](N)Cc2ccccc2)CSSC[C@@H](C(=O)N[C@@H](Cc2ccc(O)cc2)C(=O)NCC(=O)O)NC(=O)[C@H](CCC(N)=O)NC(=O)[C@@H]2CCCN2C(=O)[C@@H]2C[C@@H](O)CN2C1=O [CH53, FCTYSIHypPQCYG] (H-FCTYSI[Hyp]PQCYG-OH; disulfide 2-10; C-terminus assumed)

More lines, now with the values behind:

SMILES	Ki	IC50	inhibitory activity against chymotrypsin (in words)
CC[C@H](C)[C@H](N)C(=O)N[C@H]1CSSC[C@@H](C(=O)N[C@H](C(=O)O)[C@@H](C)CC)NC(=O)[C@H](CCC(N)=O)NC(=O)[C@H](C)NC(=O)[C@@H]2CCCN2C(=O)[C@H]([C@@H](C)CC)NC(=O)[C@H](CO)NC(=O)[C@H](Cc2ccccc2)NC(=O)[C@H]([C@@H](C)O)NC1=O [CH38] (H-ICTFSIPAQCI-OH; disulfide 2-10; N-terminus and C-terminus assumed)	2.15 µM	4.98 µM	–
CC(C)C[C@H](NC(=O)[C@@H]1CSSC[C@H](NC(=O)[C@@H](N)CCCNC(=N)N)C(=O)N[C@@H](CC(=O)O)C(=O)N[C@@H](Cc2ccccc2)C(=O)N[C@@H](CO)C(=O)N[C@@H](Cc2c[nH]c3ccccc23)C(=O)N2CCC[C@H]2C(=O)N2CCC[C@H]2C(=O)N[C@@H](CCCNC(=N)N)C(=O)N1)C(=O)O [CH42] (H-RCDFSWPPRCL-OH; disulfide 2-10; N-terminus and C-terminus assumed)	–	> 50 µM	–
C[C@@H]1NC(=O)[C@@H](NC(=O)[C@@H](N)Cc2ccccc2)CSSC[C@@H](C(=O)N[C@@H](CCC(N)=O)C(=O)O)NC(=O)[C@H](CCCCN)NC(=O)[C@@H]2CCCN2C(=O)[C@@H]2CCCN2C(=O)[C@H](CC(N)=O)NC(=O)[C@H](CO)NC(=O)[C@H](Cc2ccc(O)cc2)NC1=O [CH44] (H-FCAYSNPPKCQ-OH; disulfide 2-10; N-terminus and C-terminus assumed)	8.59 µM	19.9 µM	–
NC(=O)CC[C@H](NC(=O)[C@@H]1CSSC[C@H](NC(=O)[C@@H](N)Cc2ccccc2)C(=O)N[C@@H](CC(N)=O)C(=O)N[C@@H](Cc2ccc(O)cc2)C(=O)N[C@@H](CO)C(=O)N[C@@H](CC(N)=O)C(=O)N2CCC[C@H]2C(=O)N2CCC[C@H]2C(=O)N[C@@H](CCC(N)=O)C(=O)N1)C(=O)O [CH46] (H-FCNYSNPPQCQ-OH; disulfide 2-10; N-terminus and C-terminus assumed)	–	> 50 µM	–
CSCC[C@@H]1NC(=O)[C@H](C)NC(=O)[C@@H]2CCCN2C(=O)[C@H](CC(N)=O)NC(=O)[C@H](CO)NC(=O)[C@H](Cc2ccccc2)NC(=O)[C@H]([C@@H](C)O)NC(=O)[C@@H](NC(=O)[C@@H](N)C(C)C)CSSC[C@@H](C(=O)N[C@@H](Cc2c[nH]cn2)C(=O)O)NC1=O [CH48] (H-VCTFSNPAMCH-OH; disulfide 2-10)	–	> 50 µM	–
CSCC[C@H](N)C(=O)N[C@H]1CSSC[C@@H](C(=O)N[C@H](C(=O)O)C(C)C)NC(=O)[C@H](CCCCN)NC(=O)[C@H](C)NC(=O)[C@@H]2CCCN2C(=O)[C@H](Cc2c[nH]cn2)NC(=O)[C@H](CO)NC(=O)[C@H](Cc2ccccc2)NC(=O)[C@H]([C@@H](C)O)NC1=O [CH49] (H-MCTFSHPAKCV-OH; disulfide 2-10; N-terminus and C-terminus assumed)	9.81 µM	22.7 µM	good chymotrypsin inhibitory activity
CSCC[C@@H]1NC(=O)CNC(=O)[C@@H]2CCCN2C(=O)[C@H](CC(=O)O)NC(=O)[C@H](CO)NC(=O)[C@H](Cc2ccccc2)NC(=O)[C@H]([C@@H](C)O)NC(=O)[C@@H](NC(=O)[C@@H](N)CCSC)CSSC[C@@H](C(=O)N[C@@H](CO)C(=O)O)NC1=O [CH50] (H-MCTFSDPGMCS-OH; disulfide 2-10; N-terminus and C-terminus assumed)	–	> 50 µM	–
